Results from US11814652B2, “Pluripotent stem cell differentiation-promoting agent” (Oriental Yeast Co., Ltd., priority 2018, dated 2023).

How the values were obtained:
[1] = system: iPS cells 201B7 strain; experiment: Flow cytometry of Brachyury/CD56 after mesodermal differentiation-induction following undifferentiated culture with β-NMN (Example 6); assay type: cell-based, human; details: β-NMN 0.25 or 1 mM before mesodermal differentiation-induction; 5th or 7th day; versus absence of β-NMN
Procedure: The effects of culturing in the presence of β-NMN before induction of differentiation on the mesodermal differentiation-induction of iPS cells was examined. As the iPS cells, the 201B7 strain was used. The iPS cells were cultured in a culture dish in the same manner as in Example 5, and when the confluent reached 70 to 80%, the iPS cells were detached from the culture dish and collected. The collected iPS cells were seeded at 1×10^5 cells/well in a 24-well plate coated with Matrigel (manufactured by Corning Incorporated) according to the manufacturer's protocol. The cells in the 24-well plate were cultured for 1 day in a culture medium prepared by removing β-NMN from the culture medium when culturing in the culture dish and adjusting to have a final concentration of Rock inhibitor of 10 μM. From the 1st day after seeding, the medium was replaced every day with a culture medium for mesodermal differentiation-induction of “STEMdiff Trilineage Differentiation kit” (manufactured by STEMCELL Technologies). In the same manner as in Example 3, the cells sampled on the 5th or 7th day after seeding were stained with a fluorescently labeled anti-Brachyury antibody and a fluorescently labeled anti-CD56 antibody, and a flow cytometer was used to analyze the fluorescence intensity of the anti-Brachyury antibody and the fluorescence intensity of the anti-CD56 antibody in each sample. […]

[2] = system: iPS cells 253G1 strain; experiment: Flow cytometry of Sox17/CXCR4 endodermal markers, differentiation-induction in medium with β-NMN (Example 4); assay type: cell-based; details: endodermal differentiation-inducing medium with β-NMN 0.1, 0.25 or 1 mM; 5th or 7th day; versus absence of β-NMN
Procedure: The effects of β-NMN on the induction of endodermal differentiation of iPS cells were examined. As the iPS cells, the 253G1 strain was used. The iPS cells were seeded in a 24-well plate coated with Matrigel (manufactured by Corning Incorporated) according to the manufacturer's protocol at 3×10^5 cells/well. The cells in the 24-well plate were cultured in a culture medium for iPS cells adjusted to have a final concentration of Rock inhibitor of 10 μM for 1 day. From the 1st day after seeding, the culture medium was replaced with a culture medium prepared by adjusting an endoderm differentiation-inducing culture medium of “STEMdiff Trilineage Differentiation kit” (manufactured by STEMCELL Technologies) to have a final concentration of β-NMN of 0, 0.1, 0.25, or 1 mM for 1 day. […] Then, the cells were stained with a fluorescence-labeled anti-Sox17 antibody (manufactured by Becton, Dickinson and Company, clone P7-969) and a fluorescence-labeled anti-CXCR4 antibody (manufactured by Biolegend, clone 12G5). After washing the stained cells, a flow cytometer “FACS caliber” (manufactured by Becton, Dickinson and Company) was used to analyze the fluorescence intensity of the anti-Sox17 antibody and the fluorescence intensity of the anti-CXCR4 antibody in each sample. […]

[3] = system: Human adipose tissue-derived mesenchymal stem cells; experiment: qPCR of PPARγ and adiponectin genes after adipocyte differentiation-induction of mesenchymal stem cells grown with β-NMN (Example 9); assay type: cell-based; details: GAPDH internal standard, 0.1 mM or 0.25 mM of β-NMN, 0 mM defined as 1, 14th day of adipocyte differentiation-induction
From the text: The effects of culturing in the presence of β-NMN before adipocyte differentiation-induction of mesenchymal stern cells were examined. In the same manner as in Example 8, Human adipose tissue-derived mesenchymal stem cells (manufactured by Lonza, Cat #PT5006) were used as the mesenchymal stem cells. As a growth culture medium, a culture medium prepared by appropriately adding β-MNM to “MSCGM Bullet Kit” (manufactured by Lonza, Cat #PT3001) was used as in Example 8. As an adipocyte differentiation-inducing culture medium, a culture medium prepared by adjusting a DMEM-High Glucose medium to have a final concentration of fetal bovine serum of 10% by volume, a final concentration of IBMX of 0.5 mM, a final concentration of dexamethasone of 1 μM, a final concentration of indomethacin of 200 μM, and a final concentration of penicillin-streptomycin of 0.1% was used. The culture of the mesenchymal stem cells before differentiation-induction was performed in the same manner as in Example 8. The differentiation induction was performed in the same manner as in Example 8 except that the adipocyte differentiation-inducing culture medium was used instead of the bone differentiation-inducing culture medium. […] The relative expression level of each gene was determined from the results of qPCR of cells that were induced to differentiate into adipocytes. […]

Compound: NC(=O)c1ccc[n+]([C@@H]2O[C@H](COP(=O)([O-])O)[C@@H](O)[C@H]2O)c1 [β-NMN, β-nicotinamide mononucleotide]
- ratio of Brachyury-positive CD56-positive cells [1]: no clear difference
- ratio of Sox17-positive CXCR4-positive cells [2]: no clear difference
- relative expression level of the PPARγ gene [3]: increase
- relative expression level of the adiponectin gene [3]: increase
